# System: SK-OV-3
# Assay: Cytotoxicity against human SKOV3 cells after 72 hrs by WST8 assay
# Assay type: functional, cell-based
# Details: SK-OV-3, 72 h
row,Structure (SMILES),IC50 [nM]
1,CCC(O[C@H]1CC[C@H](O[C@H]2CC[C@H](O)[C@@H](C)O2)[C@@H](C)O1)C(C)C(O)C(C)C(O)C(C)C1C/C=C/C=C/C(O)CC(O)C(C)C(O)CC(O)C(C)C2CC(O)C(O)C(O)(CC(O[C@@H]3O[C@H](C)[C@@H](O)[C@H](O[C@H]4C[C@@H](O)[C@H](O)[C@@H](C)O4)[C@H]3O[C@@H]3O[C@H](C)[C@@H](O)[C@H](O)[C@H]3O)C(C)CCC(O)CC(O)C/C=C/C=C/C(=O)O1)O2 (stereo partly drawn),300
2,CCC(O[C@H]1CC[C@H](O[C@H]2CC[C@H](O)[C@@H](C)O2)[C@@H](C)O1)C(C)C(O)C(C)C(O)C(C)C1C/C=C/C=C/C(O)CC(O)C(C)C(O)CC(O[C@@H]2O[C@H](CO)[C@H](O)[C@H](O)[C@H]2NC(C)=O)C(C)C2CC(O)C(O)C(O)(CC(O[C@@H]3O[C@H](C)[C@@H](O)[C@H](O[C@H]4C[C@@H](O)[C@H](O)[C@@H](C)O4)[C@H]3O[C@@H]3O[C@H](C)[C@@H](O)[C@H](O)[C@H]3O)C(C)CCC(O)CC(O)C/C=C/C=C/C(=O)O1)O2 (stereo partly drawn),400
3,COc1cccc2c1C(=O)c1c(O)c3c(c(O)c1C2=O)C[C@@](O)(C(=O)CO)C[C@@H]3O[C@H]1C[C@H](N)[C@H](O)[C@H](C)O1 [DOXORUBICIN],30

# From ChEMBL document CHEMBL2151020, “JBIR-129 and -139, cytotoxic 34-membered polyol macrolides of microbial origin” (J Nat Prod, 2012)
